Consider 15 molecules from article PMC6548547 (Journal of medicinal chemistry, 2018).

One assay concerns fibroblasts. In kind it is cell-based.
A further assay relates to NPC1 protein. In kind it is cell-based.
A further assay concerns EBOV. As to conditions: cited from earlier work.
A further assay deals with Ebola VLP. It counts as cell-based, Ebola virus.
The target in a further assay is recombinant cathepsin B (Homo sapiens, UniProt P07858). As to the kind of experiment: Cathepsin B assay. It counts as biochemical. The following applies: 10 μM and dose-response.
A further assay deals with recombinant cathepsin L (Homo sapiens, UniProt P07711). In words: Cathepsin L assay. The following applies: 10 μM and dose-response. It counts as biochemical.
Chain of recombinant cathepsin L (P07711 114-333): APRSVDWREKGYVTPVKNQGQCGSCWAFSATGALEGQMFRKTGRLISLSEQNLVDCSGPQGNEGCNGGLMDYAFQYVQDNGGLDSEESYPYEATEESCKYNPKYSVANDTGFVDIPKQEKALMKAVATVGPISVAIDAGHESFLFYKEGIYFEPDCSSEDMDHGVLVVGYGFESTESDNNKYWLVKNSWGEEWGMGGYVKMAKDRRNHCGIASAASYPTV
Where [1] appears, read: read-out: IC50 of previously reported EBOV inhibitors in vitro.

Entries after “also recorded” stand apart in the source; their conditions may differ. Where two headings read alike, the source gives them in different places.

In the case of `COc1cc2c(Oc3ccc4[nH]c(C)cc4c3F)ncnc2cc1OCCCN1CCCC1` [Cediranib], the “LysoTracker staining (enlargement of lysosome size)” value (shortened to “LysoTracker staining”) in the assay with fibroblasts is “increased LysoTracker staining”.
For `CCN(CC)CCO[C@H]1CC[C@@]2(C)C(=CC[C@@H]3[C@@H]2CC[C@]2(C)C(=O)CC[C@@H]32)C1.Cl` [U18666A, 3-β-(2-[diethylamino]ethoxy)-androst-5-en-17-one, monohydrochloride], the “Cholesterol accumulation (filipin staining), impairment of NPC1 protein function” value in the assay with NPC1 protein was “increased filipin staining”. Moreover, the “LysoTracker staining” value with fibroblasts is “increased LysoTracker staining”.
For the molecule `COC(=O)Nc1nc2ccc(C(=O)c3cccs3)cc2[nH]1` [nocodazole], in the assay with EBOV, the “IC50 of previously reported EBOV inhibitors in vitro” value is on record as “sub-micromolar”.
For `CC(C)(C)c1ccc(C(=O)CCCN2CCC(OC(c3ccccc3)c3ccccc3)CC2)cc1` [Ebastine], the “LysoTracker staining” value with fibroblasts is “increased LysoTracker staining”.
Broadly, the IC50 is the concentration that inhibits the measured activity by half. `CC[C@]1(O)C[C@@H]2CN(CCc3c([nH]c4ccccc34)[C@@](C(=O)OC)(c3cc4c(cc3OC)N(C)[C@H]3[C@@](O)(C(=O)OC)[C@H](OC(C)=O)[C@]5(CC)C=CCN6CC[C@]43[C@@H]65)C2)C1` [Vinblastine]: the IC50 in the assay on EBOV (read-out: Published Compound (IC50)) is 48 nM.
On to `COc1cc2nc(N3CCCN(C)CC3)nc(NC3CCN(Cc4ccccc4)CC3)c2cc1OC` [BIX-01294], for which, in the assay on Ebola VLP, the Potency result is given as “nanomolar range; also recorded: sub-micromolar”. In addition, the “LysoTracker staining” value in the assay on fibroblasts was “increased LysoTracker staining”.
For `Cc1cn(-c2cc(NC(=O)c3ccc(C)c(Nc4nccc(-c5cccnc5)n4)c3)cc(C(F)(F)F)c2)cn1` [nilotinib], the IC50 in the assay with EBOV (setting [1]) was 24300 nM.
With `Cc1ccc(CN2CCCN(C)C3(CCN(C)CC3)C2)cc1C` [ZINC67869167], the “LysoTracker staining” value with fibroblasts is recorded as “increased LysoTracker staining; also recorded: induced enlargement of lysosomes”.
For `Cc1[nH]c2c(CN3CC(CO)C(CN4CCCC4)C3)cccc2c1C` (centres unmarked) [ZINC91973695], in the assay on fibroblasts, the “LysoTracker staining” value was “increased LysoTracker staining; also recorded: induced enlargement of lysosomes”.
Still for that read-out and setting: the value for `COc1ccc2cc1Oc1ccc(cc1)C[C@H]1c3cc(c(OC)cc3CCN1C)Oc1c(OC)c(OC)cc3c1[C@H](C2)N(C)CC3` [Tetrandrine] was “increased LysoTracker staining”.
Consider `CCN(CC)CCNC(=O)c1c(C)[nH]c(/C=C2\C(=O)Nc3ccc(F)cc32)c1C` [sunitinib], for which the IC50 in the assay on EBOV (setting [1]) was 1910 nM.
As for `CC[C@]1(O)C[C@@H]2CN(CCc3c([nH]c4ccccc34)[C@@](C(=O)OC)(c3cc4c(cc3OC)N(C)[C@H]3[C@@](O)(C(N)=O)[C@H](O)[C@]5(CC)C=CCN6CC[C@]43[C@@H]65)C2)C1` [Vindesine], in the assay with Ebola VLP, the Potency entry is listed as “nanomolar range”.
As for `CN(C)c1ccccc1CN1CCCN(Cc2ccccc2N(C)C)C1c1ccncc1` [GANT61], the “Inhibition of enzymatic activity of cathepsin B” value on recombinant cathepsin B is reported as “inhibited”. Besides, on recombinant cathepsin L, the “Inhibition of enzymatic activity of cathepsin L” value is “inhibited”. The “LysoTracker staining” value in the assay with fibroblasts was “increased LysoTracker staining; also recorded: caused enlargement of lysosomes”.
Regarding `CN1[C@@H]2CC[C@H]1C[C@@H](OC1c3ccccc3CCc3ccccc31)C2` [Deptropine], the “Inhibition of enzymatic activity of cathepsin L” value on recombinant cathepsin L is “inhibited; also recorded: blocking cathepsin L activity”. The “LysoTracker staining” value with fibroblasts is recorded as “increased LysoTracker staining”.
On to `CC(=O)N(C)C1(c2ccccc2)CCN(CCC[C@]2(c3ccc(Cl)c(Cl)c3)CCCN(C(=O)c3ccccc3)C2)CC1` [Osanetant], for which the “LysoTracker staining” value in the assay with fibroblasts is “increased LysoTracker staining; also recorded: induces the enlargement of lysosomes”.
